ChEMBL document CHEMBL5143557, “Synthesis and biological evaluation of 3β-O-neoglycosides of caudatin and its analogues as potential anticancer agents” (Bioorg Med Chem, 2022)

Assays:
HeLa = assay: Antiproliferative activity against human HeLa cells after 48 hrs by MTT assay; assay type: functional, cell-based
HCT-116 = assay: Antiproliferative activity against human HCT-116 cells after 48 hrs by MTT assay; assay type: functional, cell-based; conditions: HCT-116, 48 h
MCF7 = assay: Antiproliferative activity against human MCF7 cells after 48 hrs by MTT assay; assay type: functional, cell-based; conditions: MCF7, 48 h
HepG2 [1] = assay: Antiproliferative activity against human HepG2 cells after 48 hrs by MTT assay; assay type: functional, cell-based; conditions: HepG2, 48 h
HepG2 [2] = assay: Cell cycle arrest in human HepG2 cells assessed as number of cells at G2 phase at 5 uM after 48 hrs by flow cytometry (reference value: 16.28%); assay type: functional
HepG2 [3] = assay: Induction of apoptosis in human HepG2 cells assessed as early apoptotic cells at 10 uM measured after 48 hrs by annexin-V and PI staining based flow cytometry (reference value: 4.11%); assay type: functional
HepG2 [4] = assay: Cell cycle arrest in human HepG2 cells assessed as number of cells at G1 phase at 5 uM after 48 hrs by flow cytometry (reference value: 57.68%); assay type: functional
HepG2 [5] = assay: Induction of apoptosis in human HepG2 cells assessed as necrotic cells at 5 uM measured after 48 hrs by annexin-V and PI staining based flow cytometry (reference value: 0.363%); assay type: functional
HepG2 [6] = assay: Induction of apoptosis in human HepG2 cells assessed as late apoptotic cells at 20 uM measured after 48 hrs by annexin-V and PI staining based flow cytometry (reference value: 4.52%); assay type: functional
HepG2 [7] = assay: Induction of apoptosis in human HepG2 cells assessed as late apoptotic cells at 5 uM measured after 48 hrs by annexin-V and PI staining based flow cytometry (reference value: 4.52%); assay type: functional
HepG2 [8] = assay: Induction of apoptosis in human HepG2 cells assessed as necrotic cells at 10 uM measured after 48 hrs by annexin-V and PI staining based flow cytometry (reference value: 0.363%); assay type: functional
HepG2 [9] = assay: Cell cycle arrest in human HepG2 cells assessed as number of cells at G2 phase at 20 uM after 48 hrs by flow cytometry (reference value: 16.28%); assay type: functional
HepG2 [10] = assay: Induction of apoptosis in human HepG2 cells assessed as live cells at 5 uM measured after 48 hrs by annexin-V and PI staining based flow cytometry (reference value: 91%); assay type: functional
HepG2 [11] = assay: Cell cycle arrest in human HepG2 cells assessed as number of cells at S phase at 5 uM after 48 hrs by flow cytometry (reference value: 24.31%); assay type: functional
HepG2 [12] = assay: Cell cycle arrest in human HepG2 cells assessed as number of cells at G1 phase at 10 uM after 48 hrs by flow cytometry (reference value: 57.68%); assay type: functional
HepG2 [13] = assay: Induction of apoptosis in human HepG2 cells assessed as live cells at 10 uM measured after 48 hrs by annexin-V and PI staining based flow cytometry (reference value: 91%); assay type: functional
HepG2 [14] = assay: Induction of apoptosis in human HepG2 cells assessed as early apoptotic cells at 20 uM measured after 48 hrs by annexin-V and PI staining based flow cytometry (reference value: 4.11%); assay type: functional
HepG2 [15] = assay: Cell cycle arrest in human HepG2 cells assessed as number of cells at G1 phase at 20 uM after 48 hrs by flow cytometry (reference value: 57.68%); assay type: functional
HepG2 [16] = assay: Induction of apoptosis in human HepG2 cells assessed as necrotic cells at 20 uM measured after 48 hrs by annexin-V and PI staining based flow cytometry (reference value: 0.363%); assay type: functional
HepG2 [17] = assay: Cell cycle arrest in human HepG2 cells assessed as number of cells at S phase at 20 uM after 48 hrs by flow cytometry (reference value: 24.31%); assay type: functional
HepG2 [18] = assay: Cell cycle arrest in human HepG2 cells assessed as number of cells at S phase at 10 uM after 48 hrs by flow cytometry (reference value: 24.31%); assay type: functional
HepG2 [19] = assay: Induction of apoptosis in human HepG2 cells assessed as live cells at 20 uM measured after 48 hrs by annexin-V and PI staining based flow cytometry (reference value: 91%); assay type: functional
HepG2 [20] = assay: Induction of apoptosis in human HepG2 cells assessed as early apoptotic cells at 5 uM measured after 48 hrs by annexin-V and PI staining based flow cytometry (reference value: 4.11%); assay type: functional
HepG2 [21] = assay: Induction of apoptosis in human HepG2 cells assessed as late apoptotic cells at 10 uM measured after 48 hrs by annexin-V and PI staining based flow cytometry (reference value: 4.52%); assay type: functional
HepG2 [22] = assay: Cell cycle arrest in human HepG2 cells assessed as number of cells at G2 phase at 10 uM after 48 hrs by flow cytometry (reference value: 16.28%); assay type: functional

CC(=O)O[C@@H]1[C@@H](OC(C)=O)[C@H](C)O[C@@H](O[C@H]2CC[C@@]3(C)C(=CC[C@]4(O)[C@@H]3C[C@@H](OC(=O)/C=C/c3ccccc3)[C@@]3(C)[C@]4(O)CC[C@@]3(O)[C@H](C)OC(=O)c3cccnc3)C2)[C@@H]1OC(C)=O
IC50 (HeLa): > 100 µM
IC50 (HCT-116): 71.4 µM
IC50 (MCF7): > 100 µM
IC50 (HepG2 [1]): 69.1 µM

CC(=O)OC[C@@H]1O[C@H](O[C@H]2CC[C@@]3(C)C(=CC[C@]4(O)[C@@H]3C[C@@H](OC(=O)/C=C(\C)C(C)C)[C@@]3(C)[C@]4(O)CC[C@@]3(O)C(C)=O)C2)[C@@H](OC(C)=O)[C@H](OC(C)=O)[C@H]1OC(C)=O
Activity (HepG2 [2]): 16.95%
Activity (HepG2 [3]): 35.6%
Activity (HepG2 [4]): 51.38%
Activity (HepG2 [5]): 0.068%
Activity (HepG2 [6]): 5.34%
Activity (HepG2 [7]): 5.07%
IC50 (HeLa): 7.6 µM
IC50 (HCT-116): 5.64 µM
Activity (HepG2 [8]): 0.096%
Activity (HepG2 [9]): 15.99%
Activity (HepG2 [10]): 83.5%
Activity (HepG2 [11]): 28.72%
Activity (HepG2 [12]): 46.89%
Activity (HepG2 [13]): 57%
Activity (HepG2 [14]): 76.5%
IC50 (MCF7): 9.04 µM
Activity (HepG2 [15]): 41.76%
Activity (HepG2 [16]): 0.184%
Activity (HepG2 [17]): 38.82%
Activity (HepG2 [18]): 34.6%
Activity (HepG2 [19]): 18%
Activity (HepG2 [20]): 11.3%
IC50 (HepG2 [1]): 3.11 µM
Activity (HepG2 [21]): 7.26%
Activity (HepG2 [22]): 15.75%

CC(=O)[C@]1(O)CC[C@@]2(O)[C@]1(C)[C@H](OC(=O)/C=C(\C)C(C)C)C[C@@H]1[C@@]3(C)CC[C@H](O)CC3=CC[C@]12O [CAUDATIN]
IC50 (HeLa): > 100 µM
IC50 (HCT-116): 64.1 µM
IC50 (MCF7): > 100 µM
IC50 (HepG2 [1]): 65.9 µM

C[C@H](OC(=O)c1cccnc1)[C@]1(O)CC[C@@]2(O)[C@]1(C)[C@H](OC(=O)/C=C/c1ccccc1)C[C@@H]1[C@@]3(C)CC[C@H](O)CC3=CC[C@]12O [GAGAMININ]
IC50 (HeLa): 96.4 µM
IC50 (HCT-116): 69.9 µM
IC50 (MCF7): > 100 µM
IC50 (HepG2 [1]): 65 µM
